# Laboratory results: US12441727B2, “Tricyclic compounds as inhibitors of KRAS” (Incyte Corporation, priority 2021, dated 2025)
# Tests used:
# KRAS G12C = KRAS G12C (Homo sapiens, UniProt P01116, G12C); experiment: GDP-GTP exchange assay (KRAS_G12C exchange assay); format: biochemical; conditions: bodipy-loaded KRAS G12C 2.5 nM, SOS1 150 nM, 2 hours pre-incubation with inhibitor; read-out: G12C_exchange
# Procedure, shortened: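 Bodipy-GDP-loaded KRAS G12C (2.5 nM final) preincubated 2 hours with compound in 25 mM Hepes pH 7.5, 50 mM NaCl, 10 mM MgCl2, 0.01% Brij-35; exchange started with 500 uM GppNHp and 150 nM SOS1, run 2 hours at ambient temperature. Fluorescence read at 485/520 nm; IC50 by four-parameter logistic fit.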
# KRAS_G12C pERK = experiment: Cellular pERK HTRF assay (KRAS_G12C pERK assay); format: cell-based, human; conditions: Homo sapiens, 4 h, KRAS G12C cells, 4 hours incubation with compound; read-out: G12C_pERK
# Procedure, shortened: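 KRAS-mutant (G12C, G12D, G12V) and KRAS WT cancer cell lines, plated overnight in RPMI/10% FBS, were treated with compound (0.1% DMSO) at 37 °C for 4 h (G12C, G12V) or 2 h (G12D). Lysates were probed with anti-phospho-ERK1/2 HTRF antibody pair read at 665/620 nm; IC50 fitted.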
# [1] = test system: KRAS_G12C pERK in MIA PaCa-2 cells; experiment: Whole Blood pERK1/2 HTRF assay (KRAS_G12C WB pERK assay); format: cell-based, human; conditions: Homo sapiens, compound in whole blood, 4 hours, read-out: G12C_WB_pERK
# Method: MIA PaCa-2 cells (KRAS G12C; ATCC® CRL-1420), HPAF-II (KRAS G12D; ATCC® CRL-1997) and YAPC (KRAS G12V; DSMZ ACC382) are maintained in RPMI 1640 with 10% FBS (Gibco/Life Technologies). For MIA PaCa-2 assay, cells are seeded into 96 well tissue culture plates (Corning #3596) at 25000 cells per well in 100 uL media and cultured for 2 days at 37° C., 5% CO2 before the assay. For HPAF-II and YAPC assay, cells are seeded in 96 well tissue culture plates at 50000 cells per well in 100 uL media and cultured for 1 day before the assay. Whole Blood are added to the 1 uL dots of compounds (prepared in DMSO) in 96 well plates and mixed gently by pipetting up and down so that the concentration of the compound in blood is 1× of desired concentration, in 0.5% DMSO. The media is aspirated from the cells and 50 uL per well of whole blood with test compound is added and incubated for 4 hours for MIA PaCa and YAPC assay; or 2 hours for HPAF-II assay, respectively at 37° C., 5% CO2. After dumping the blood, the plates are gently washed twice by adding PBS to the side of the wells and dumping the PBS from the plate onto a paper towel, tapping the plate to drain well. Fifty ul/well of 1× lysis buffer #1 (Cisbio) with blocking reagent (Cisbio) and Benzonase nuclease (Sigma Cat #E1014-5KU, 1:10000 final concentration) is then added and incubated at room temperature for 30 minutes with shaking (250 rpm). Following lysis, 16 uL of lysate is transferred into 384-well Greiner small volume white plate using an Assist Plus (Integra Biosciences, NH). Four uL of 1:1 mixture of anti Phospho-ERK 1/2 d2 and anti Phospho-ERK 1/2 Cryptate (Cisbio) is added to the wells using the Assist Plus and incubated at room temperature overnight in the dark. Plates are read on the Pherastar plate reader at 665 nm and 620 nm wavelengths. Data are analyzed in Genedata Screener using SmartFit for IC50 values.
# [2] = Human whole blood stability; format: in vitro ADME; conditions: percent remaining at 4 hr, 1 μM, 37° C.
# Method: The whole blood stability of the exemplified compounds was determined by LC-MS/MS. The 96-Well Flexi-Tier™ Block (Analytical Sales & Services, Inc, Flanders, NJ) is used for the incubation plate containing 1.0 mL glass vials with 0.5 mL of blood per vial (pooled gender, human whole blood sourced from BIOIVT, Hicksville, NY or similar). Blood is pre-warmed in water bath to 37° C. for 30 minutes. 96-deep well analysis plate is prepared with the addition of 100 μL ultrapure water/well. 50 μL chilled ultrapure water/well is added to 96-deep well sample collection plate and covered with a sealing mat. 1 μL of 0.5 mM compound working solution (DMSO:water) is added to the blood in incubation plate to reach final concentrations of 1 μM, mixed by pipetting thoroughly and 50 μL is transferred 50 into the T=0 wells of the sample collection plate. Blood is allowed to sit in the water for 2 minutes and then 400 μL stop solution/well is added (acetonitrile containing an internal standard). The incubation plate is placed in the Incu-Shaker CO2 Mini incubator (Benchmark Scientific, Sayreville, NJ) at 37° C. with shaking at 150 rpm. At 1, 2 and 4-hr, the blood samples are mixed thoroughly by pipetting and 50 μL is transferred into the corresponding wells of the sample collection plate. Blood is allowed to sit in the water for 2 minutes and then 400 μL of stop solution/well is added. The collection plate is sealed and vortexed at 1700 rpm for 3 minutes (VX-2500 Multi-Tube Vortexer, VWR International, Radnor, PA), and samples are then centrifuged in the collection plate at 3500 rpm for 10 minutes (Allegra X-14R Centrifuge Beckman Coulter, Indianapolis, IN). 100 μL of supernatant/well is transferred from the sample collection plate into the corresponding wells of the analysis plate. The final plate is vortexed at 1700 rpm for 1 minute and analyze samples by LC-MS/MS. The peak area ratio of the 1, 2, and 4 hr samples relative to T=0 is used to determine the percent remaining. The natural log of the percent remaining versus time is used determine a slope to calculate the compounds half-life in blood (t1/2=0.693/slope).
# Sequence of KRAS G12C (P01116 1-188 isoform P01116-2 G12C): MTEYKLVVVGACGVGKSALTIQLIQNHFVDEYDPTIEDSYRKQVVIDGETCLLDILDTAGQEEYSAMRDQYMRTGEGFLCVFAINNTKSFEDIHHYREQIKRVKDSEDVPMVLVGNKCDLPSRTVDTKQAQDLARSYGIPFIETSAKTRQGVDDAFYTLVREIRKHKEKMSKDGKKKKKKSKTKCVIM
IC50 (KRAS G12C),IC50 (KRAS_G12C pERK),IC50 [1],Human whole blood stability at 4 hr [2],SMILES
≤ 50 nM,≤ 50 nM,≤ 50 nM,††† (WBS >90%),"COC/C=C/C(=O)N1CC[C@H](n2nnc3c(O[C@@H](C)[C@@H]4CCCN4C)nc4c(F)c(-c5ccc(F)cc5)c(C)cc4c32)C[C@H]1CC#N [Example 10, 2-((2S,4S)-4-(6-fluoro-7-(4-fluorophenyl)-8-methyl-4-((S)-1-((S)-1-methylpyrrolidin-2-yl)ethoxy)-1H-[1,2,3]triazolo[4,5-c]quinolin-1-yl)-1-((E)-4-methoxybut-2-enoyl)piperidin-2-yl)acetonitrile]"
≤ 50 nM,≤ 50 nM,50 to 100 nM,†† (WBS >70% but ≤90%),"C=C(F)C(=O)N1CC[C@H](n2nnc3c(N4CC(C)(N(C)CC)C4)nc4c(F)c(-c5c(C)c(C)cc6[nH]ncc56)c(Cl)cc4c32)C[C@H]1CC#N (single isomer, unassigned) [Example 33a]"
≤ 50 nM,≤ 50 nM,100 to 1000 nM,†† (WBS >70% but ≤90%),"COc1c(Cl)cccc1-c1c(C(F)(F)F)cc2c(nc(N3CC(C)(N(C)C)C3)c3nnn([C@H]4CCN(C(=O)/C=C/CF)[C@H](CC#N)C4)c32)c1F (single isomer, unassigned) [Example 3a]"
≤ 50 nM,≤ 50 nM,≤ 50 nM,†† (WBS >70% but ≤90%),"CN(C)C1(C)CN(c2nc3c(Cl)c(-c4ccc(F)c5cccnc45)c(Cl)cc3c3c2nnn3[C@H]2CCN(C(=O)/C=C/CF)[C@H](CC#N)C2)C1 (single isomer, unassigned) [Example 19a]"
≤ 50 nM,≤ 50 nM,≤ 50 nM,†† (WBS >70% but ≤90%),"COc1c(C)cccc1-c1c(C(F)(F)F)cc2c(nc(N3CC(C)(N(C)C)C3)c3nnn([C@H]4CCN(C(=O)/C=C/CF)[C@H](CC#N)C4)c32)c1F (single isomer, unassigned) [Example 2a]"
≤ 50 nM,≤ 50 nM,≤ 50 nM,†† (WBS >70% but ≤90%),"Cc1ccc(-c2c(C)cc3c(nc(O[C@@H](C)[C@@H]4CCCN4C)c4nnn([C@H]5CCN(C(=O)/C=C/CF)[C@H](CC#N)C5)c43)c2F)cn1 [Example 8, 2-((2S,4S)-4-(6-fluoro-8-methyl-7-(6-methylpyridin-3-yl)-4-((S)-1-((S)-1-methylpyrrolidin-2-yl)ethoxy)-1H-[1,2,3]triazolo[4,5-c]quinolin-1-yl)-1-((E)-4-fluorobut-2-enoyl)piperidin-2-yl)acetonitrile]"
≤ 50 nM,≤ 50 nM,≤ 50 nM,††† (WBS >90%),"Cc1cc2c(nc(O[C@@H](C)[C@@H]3CCCN3C)c3nnn([C@H]4CCN(C(=O)/C=C/CF)[C@H](CC#N)C4)c32)c(F)c1-c1ccc2cnn(C)c2c1 [Example 7, 2-((2S,4S)-4-(6-fluoro-8-methyl-7-(1-methyl-1H-indazol-6-yl)-4-((S)-1-((S)-1-methylpyrrolidin-2-yl)ethoxy)-1H-[1,2,3]triazolo[4,5-c]quinolin-1-yl)-1-((E)-4-fluorobut-2-enoyl)piperidin-2-yl)acetonitrile]"
≤ 50 nM,≤ 50 nM,50 to 100 nM,††† (WBS >90%),"C=C(F)C(=O)N1CC[C@H](n2nnc3c(N4CC(C)(N(C)CC)C4)nc4c(F)c(-c5c(C)c(F)cc6[nH]ncc56)c(Cl)cc4c32)C[C@H]1CC#N (single isomer, unassigned) [Example 35a]"
≤ 50 nM,≤ 50 nM,50 to 100 nM,††† (WBS >90%),"C=C(F)C(=O)N1CC[C@H](n2nnc3c(N4CC(C)(N(C)CC)C4)nc4c(F)c(-c5c(C)c(C)cc6[nH]ncc56)c(C)cc4c32)C[C@H]1CC#N (single isomer, unassigned) [Example 30]"
≤ 50 nM,≤ 50 nM,50 to 100 nM,††† (WBS >90%),"C=C(F)C(=O)N1CC[C@H](n2nnc3c(N4CC(N(C)CC)C4)nc4c(F)c(-c5c(C)c(C)cc6[nH]ncc56)c(C)cc4c32)C[C@H]1CC#N (single isomer, unassigned) [Example 15a]"
≤ 50 nM,≤ 50 nM,≤ 50 nM,††† (WBS >90%),"C=CC(=O)N1CC[C@H](n2nnc3c(O[C@@H](C)[C@@H]4CCCN4C)nc4c(F)c(-c5cccc6cccc(C#N)c56)c(C)cc4c32)C[C@H]1C (single isomer, unassigned) [Example 14b]"
≤ 50 nM,≤ 50 nM,≤ 50 nM,††† (WBS >90%),"Cc1cccc(-c2c(C)cc3c(nc(N4CC(C)(N(C)C)C4)c4ncn([C@H]5CCN(C(=O)/C=C/CF)[C@H](CC#N)C5)c43)c2F)c1Cl [Example 12, 2-((2S,4S)-4-(7-(2-chloro-3-methylphenyl)-4-(3-(dimethylamino)-3-methylazetidin-1-yl)-6-fluoro-8-methyl-1H-imidazo[4,5-c]quinolin-1-yl)-1-((E)-4-fluorobut-2-enoyl)piperidin-2-yl)acetonitrile]"
≤ 50 nM,≤ 50 nM,100 to 1000 nM,††† (WBS >90%),"C=C(F)C(=O)N1CC[C@H](n2nnc3c(N4CC(C)(N(C)CC)C4)nc4c(F)c(-c5c(C)c(F)cc6[nH]ncc56)c(C)cc4c32)C[C@H]1CC#N (single isomer, unassigned) [Example 29]"
≤ 50 nM,≤ 50 nM,≤ 50 nM,††† (WBS >90%),"COC/C=C/C(=O)N1CC[C@H](n2nnc3c(O[C@@H](C)[C@@H]4CCCN4C)nc4c(F)c(-c5ncc(F)c6ccccc56)c(C)cc4c32)C[C@H]1CC#N [Example 21, 2-((2S,4S)-4-(6-fluoro-7-(4-fluoroisoquinolin-1-yl)-8-methyl-4-((S)-1-((S)-1-methylpyrrolidin-2-yl)ethoxy)-1H-[1,2,3]triazolo[4,5-c]quinolin-1-yl)-1-((E)-4-methoxybut-2-enoyl)piperidin-2-yl)acetonitrile]"
≤ 50 nM,≤ 50 nM,≤ 50 nM,††† (WBS >90%),"C[C@H](Oc1nc2c(F)c(-c3ccc(F)c4cccnc34)c(C(F)(F)F)cc2c2c1nnn2[C@H]1CCN(C(=O)/C=C/CF)[C@H](CC#N)C1)[C@@H]1CCCN1C (single isomer, unassigned) [Example 4a]"
